Patent US8178522B2, “Thiazoles” (Hoffmann-La Roche Inc., priority 2009, dated 2012)

molecular target: T1, GABA A α5 (α5β3γ2) (Homo sapiens, UniProt P18507+P31644); assay: [3H]flumazenil competition binding, human GABA A α5 receptor; conditions: not given
T1 construct: expressed in transfected cells; host or cells: HEK293, transiently transfected; membrane preparation
Description: Membrane Preparation and Binding Assay
The affinity of compounds at GABA A receptor subtypes was measured by competition for [3H]flumazenil (85 Ci/mmol; Roche) binding to HEK293 cells expressing rat (stably transfected) or human (transiently transfected) receptors of compositional α1β3γ2, α2β3γ2, α3β3γ2 and α5β3γ2.
Cell pellets were suspended in Krebs-tris buffer (4.8 mM KCl, 1.2 mM CaCl2, 1.2 mM MgCl2, 120 mM NaCl, 15 mM Tris; pH 7.5; binding assay buffer), homogenized by polytron for ca. 20 sec on ice and centrifuged for 60 min at 4° C. (50000 g; Sorvall, rotor: SM24=20000 rpm). The cell pellets were re-suspended in Krebs-tris buffer and homogenized by polytron for ca. 15 sec on ice. Protein was measured (Bradford method, Bio-Rad) and aliquots of 1 mL were prepared and stored at −80° C.
Assays were incubated to equilibrium for 1 hour at 4° C. and harvested onto GF/C uni-filters (Packard) by filtration using a Packard harvester and washing with ice-cold wash buffer (50 mM Tris; pH 7.5). After drying, filter-retained radioactivity was detected by liquid scintillation counting. Ki values were calculated using Excel-Fit (Microsoft) and are the means of two determinations.

| Ki [nM] | Structure (SMILES) |
| --- | --- |
| 4.1 | Cc1onc(-c2ccc(F)cn2)c1/C=C/c1ncc(C(=O)NC2CC2)s1 [Example 79, 2-{(E)-2-[3-(5-Fluoro-pyridin-2-yl)-5-methyl-isoxazol-4-yl]-vinyl}-thiazole-5-carboxylic acid cyclopropylamide] |
| 12.7 | Cc1onc(-c2ccc(F)cn2)c1CCc1ncc(C(=O)NC2CC2)s1 [Example 42, 2-{2-[3-(5-Fluoro-pyridin-2-yl)-5-methyl-isoxazol-4-yl]-ethyl}-thiazole-5-carboxylic acid cyclopropylamide] |

| Structure (SMILES) | Ki [nM] |
| --- | --- |
| Cc1onc(-c2ccc(F)cn2)c1/C=C/c1ncc(C(=O)NCC(F)(F)F)s1 [Example 84, 2-{(E)-2-[3-(5-Fluoro-pyridin-2-yl)-5-methyl-isoxazol-4-yl]-vinyl}-thiazole-5-carboxylic acid (2,2,2-trifluoro-ethyl)-amide] | 4.1 |

same assay, conditions: human receptor α5β3γ2 transiently transfected in HEK293 cells; competition for [3H]flumazenil 0.5 nM; 1 hour at 4° C.; means of two determinations; read-out: hKi GABA A α5

| Structure (SMILES) | Ki [nM] |
| --- | --- |
| CCCCc1noc(C)c1CCc1ncc(C(=O)NC2CCOCC2)s1 [Example 59, 2-[2-(3-Butyl-5-methyl-isoxazol-4-yl)-ethyl]-thiazole-5-carboxylic acid (tetrahydro-pyran-4-yl)-amide] | 32.5 |
| CCCCc1noc(C)c1/C=C/c1nc(C)c(C(=O)N[C@H](CC)CO)s1 [Example 105, 2-[(E)-2-(3-Butyl-5-methyl-isoxazol-4-yl)-vinyl]-4-methyl-thiazole-5-carboxylic acid ((R)-1-hydroxymethyl-propyl)-amide] | 7.9 |
| Cc1onc(-c2ccccc2)c1COc1ncc(C(=O)NC(C)C)s1 [Example 127, 2-(5-Methyl-3-phenyl-isoxazol-4-ylmethoxy)-thiazole-5-carboxylic acid isoprop-ylamide] | 2.2 |
| CCCCc1noc(C)c1COc1ncc(C(=O)NC(C)CO)s1 (racemic) [Example 133, Rac-2-(3-Butyl-5-methyl-isoxazol-4-ylmethoxy)-thiazole-5-carboxylic acid (2-hydroxy-1-methyl-ethyl)-amide] | 19.2 |
| Cc1onc(-c2ccccc2)c1COc1ncc(C(=O)NC(C)(C)CO)s1 [Example 131, 2-(5-Methyl-3-phenyl-isoxazol-4-ylmethoxy)-thiazole-5-carboxylic acid (2-hydroxy-1,1-dimethyl-ethyl)-amide] | 12.7 |
| Cc1nc(CCc2conc2-c2ccccn2)sc1C(=O)NCC(F)(F)F [Example 20, 4-Methyl-2-[2-(3-pyridin-2-yl-isoxazol-4-yl)-ethyl]-thiazole-5-carboxylic acid (2,2,2-trifluoro-ethyl)-amide] | 90.5 |
| CCCCc1noc(C)c1CCc1nc(C)c(C(=O)NC2CCOCC2)s1 [Example 51, 2-[2-(3-Butyl-5-methyl-isoxazol-4-yl)-ethyl]-4-methyl-thiazole-5-carboxylic acid (tetra-hydro-pyran-4-yl)-amide] | 11.1 |
| CCOC(=O)c1cnc(OCc2c(-c3ccccc3)noc2C)s1 [Example 126, 2-(5-Methyl-3-phenyl-isoxazol-4-ylmethoxy)-thiazole-5-carboxylic acid ethyl ester] | 16.8 |
| CCCCc1noc(C)c1/C=C/c1nc(C)c(C(=O)NC2CCOC2)s1 (stereo not shown) [Example 94, 2-[(E)-2-(3-Butyl-5-methyl-isoxazol-4-yl)-vinyl]-4-methyl-thiazole-5-carboxylic acid (tetrahydro-furan-3-yl)-amide] | 1.2 |
| Cc1onc(-c2ccccn2)c1CCc1ncc(C(=O)NC2CCS(=O)(=O)C2)s1 (stereo not shown) [Example 27, 2-[2-(5-Methyl-3-pyridin-2-yl-isoxazol-4-yl)-ethyl]-thiazole-5-carboxylic acid (1,1-dioxo-tetrahydrothiophen-3-yl)-amide] | 14 |
| Cc1nc(/C=C/c2c(-c3ccccc3)noc2C)sc1C(=O)NC(C)C [Example 68, 4-Methyl-2-[(E)-2-(5-methyl-3-phenyl-isoxazol-4-yl)-vinyl]-thiazole-5-carboxylic acid isopropylamide] | 0.4 |
| CCCCc1noc(C)c1/C=C/c1nc(C)c(C(=O)O)s1 [Example 99, 2-[(E)-2-(3-Butyl-5-methyl-isoxazol-4-yl)-vinyl]-4-methyl-thiazole-5-carboxylic acid] | 27.6 |
| Cc1onc(-c2ccccn2)c1CCc1ncc(C(=O)NC2CC2)s1 [Example 23, 2-[2-(5-Methyl-3-pyridin-2-yl-isoxazol-4-yl)-ethyl]-thiazole-5-carboxylic acid cyclo-propylamide] | 26.1 |
| Cc1onc(-c2ccccc2)c1/C=C/c1ncc(C(=O)NC2CCOCC2)s1 [Example 63, 2-[(E)-2-(5-Methyl-3-phenyl-isoxazol-4-yl)-vinyl]-thiazole-5-carboxylic acid (tetra-hydro-pyran-4-yl)-amide] | 1.2 |
| CCCCc1noc(C)c1/C=C/c1nc(C)c(C(=O)N2CC(F)(F)C2)s1 [Example 108, {2-[(E)-2-(3-Butyl-5-methyl-isoxazol-4-yl)-vinyl]-4-methyl-thiazol-5-yl}-(3,3-difluoro-azetidin-1-yl)-methanone] | 24.5 |

The remaining lines, values ahead:

| Ki [nM] | Structure (SMILES) |
| --- | --- |
| 7 | Cc1nc(CCc2c(-c3ccc(F)cn3)noc2C)sc1C(=O)NC(C)C [Example 32, 2-{2-[3-(5-Fluoro-pyridin-2-yl)-5-methyl-isoxazol-4-yl]-ethyl}-4-methyl-thiazole-5-carboxylic acid isopropylamide] |
| 13.3 | Cc1onc(-c2ccc(F)cn2)c1CCc1ncc(C(=O)NC2CCOCC2)s1 [Example 40, 2-{2-[3-(5-Fluoro-pyridin-2-yl)-5-methyl-isoxazol-4-yl]-ethyl}-thiazole-5-carboxylic acid (tetrahydro-pyran-4-yl)-amide] |
| 5.7 | Cc1nc(CCc2c(-c3ccccc3)noc2C)sc1C(=O)NC(C)C [Example 1, 4-Methyl-2-[2-(5-methyl-3-phenyl-isoxazol-4-yl)-ethyl]-thiazole-5-carboxylic acid iso-propylamide] |
| 7.9 | Cc1nc(CCc2c(-c3ccccc3)noc2C)sc1C(=O)NC(C)CO (racemic) [Example 3, Rac-4-Methyl-2-[2-(5-methyl-3-phenyl-isoxazol-4-yl)-ethyl]-thiazole-5-carboxylic acid (2-hydroxy-1-methyl-ethyl)-amide] |
| 20.3 | COC(=O)c1sc(CCc2c(-c3ccccn3)noc2C)nc1C [Example 8, 4-Methyl-2-[2-(5-methyl-3-pyridin-2-yl-isoxazol-4-yl)-ethyl]-thiazole-5-carboxylic acid methyl ester] |
| 32.3 | Cc1nc(CCc2c(-c3ccccn3)noc2C)sc1C(N)=O [Example 18, 4-Methyl-2-[2-(5-methyl-3-pyridin-2-yl-isoxazol-4-yl)-ethyl]-thiazole-5-carboxylic acid amide] |
| 16.8 | CCCCc1noc(C)c1CCc1nc(C)c(C(=O)NC(C)CO)s1 (stereo not shown) [Example 50, 2-[2-(3-Butyl-5-methyl-isoxazol-4-yl)-ethyl]-4-methyl-thiazole-5-carboxylic acid (2-hydroxy-1-methyl-ethyl)-amide] |
| 15.9 | CCCCc1noc(C)c1CCc1nc(C)c(C(=O)N[C@@H](C)CO)s1 [Example 54, 2-[2-(3-Butyl-5-methyl-isoxazol-4-yl)-ethyl]-4-methyl-thiazole-5-carboxylic acid ((S)-2-hydroxy-1-methyl-ethyl)-amide] |
| 9 | Cc1nc(CCc2c(-c3ccc(F)cn3)noc2C)sc1C(=O)NC1CC1 [Example 33, 2-{2-[3-(5-Fluoro-pyridin-2-yl)-5-methyl-isoxazol-4-yl]-ethyl}-4-methyl-thiazole-5-carboxylic acid cyclopropylamide] |
| 18.7 | CCCCc1noc(C)c1CCc1nc(C)c(C(=O)NC(CO)CO)s1 [Example 53, 2-[2-(3-Butyl-5-methyl-isoxazol-4-yl)-ethyl]-4-methyl-thiazole-5-carboxylic acid (2-hydroxy-1-hydroxymethyl-ethyl)-amide] |
| 5.1 | Cc1onc(-c2ccc(F)cn2)c1/C=C/c1ncc(C(=O)NCCO)s1 [Example 85, 2-{(E)-2-[3-(5-Fluoro-pyridin-2-yl)-5-methyl-isoxazol-4-yl]-vinyl}-thiazole-5-carboxylic acid (2-hydroxy-ethyl)-amide] |
| 10.8 | CCNC(=O)c1sc(CCc2c(-c3ccc(F)cn3)noc2C)nc1C [Example 38, 2-{2-[3-(5-Fluoro-pyridin-2-yl)-5-methyl-isoxazol-4-yl]-ethyl}-4-methyl-thiazole-5-carboxylic acid ethylamide] |
| 37.8 | Cc1nc(CCc2c(-c3ccccc3)noc2C)sc1C(=O)NCC(C)(C)O [Example 4, 4-Methyl-2-[2-(5-methyl-3-phenyl-isoxazol-4-yl)-ethyl]-thiazole-5-carboxylic acid (2-hydroxy-2-methyl-propyl)-amide] |
| 13.8 | Cc1onc(-c2ccccc2)c1CCc1ncc(C(=O)NC(C)C)s1 [Example 7, 2-[2-(5-Methyl-3-phenyl-isoxazol-4-yl)-ethyl]-thiazole-5-carboxylic acid isopropyl-amide] |
| 33.7 | Cc1nc(CCc2c(-c3ccccc3)noc2C)sc1C(N)=O [Example 6, 4-Methyl-2-[2-(5-methyl-3-phenyl-isoxazol-4-yl)-ethyl]thiazole-5-carboxylic acid amide] |
| 7.7 | Cc1nc(CCc2c(-c3ccccn3)noc2C)sc1C(=O)NC1CC1 [Example 11, 4-Methyl-2-[2-(5-methyl-3-pyridin-2-yl-isoxazol-4-yl)-ethyl]-thiazole-5-carboxylic acid cyclopropylamide] |
